PubChem BioAssay (NCI)
Where “and” joins values, the source holds several entries; their conditions need not be identical. Equal values may be shown once.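 Step 1: Grow cells in 96-well plates. Step 2: Expose to compound for 48 hours at 5 concentrations. Step 3: Interpolate endpoints linearly; if unreached, use highest concentration. GI50 = concentration required for 50% inhibition of growth. At the TGI there is no net growth.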

Key:
Test in all cases: NCI-60 cell line screen, 48 h
NCI-H226 lung = test system: NCI-H226 lung
SK-OV-3 ovarian = test system: SK-OV-3 ovarian
NCI/ADR-RES ovarian = test system: NCI/ADR-RES ovarian
OVCAR-4 ovarian = test system: OVCAR-4 ovarian
OVCAR-3 ovarian = test system: OVCAR-3 ovarian
A498 renal = test system: A498 renal
NCI-H23 lung = test system: NCI-H23 lung
ACHN renal = test system: ACHN renal
T-47D breast = test system: T-47D breast
CAKI-1 renal = test system: CAKI-1 renal

SMILES	TGI (NCI-H226 lung) [µM]	TGI (SK-OV-3 ovarian) [µM]	TGI (NCI/ADR-RES ovarian) [µM]	TGI (OVCAR-4 ovarian) [µM]	TGI (OVCAR-3 ovarian) [µM]	TGI (A498 renal) [µM]	TGI (NCI-H23 lung) [µM]	TGI (ACHN renal) [µM]	TGI (T-47D breast)	TGI (CAKI-1 renal) [µM]	GI50 (NCI-H226 lung) [µM]	GI50 (NCI/ADR-RES ovarian) [µM]	GI50 (OVCAR-4 ovarian) [µM]	GI50 (OVCAR-3 ovarian) [µM]	GI50 (A498 renal) [µM]	GI50 (NCI-H23 lung) [µM]	GI50 (ACHN renal) [µM]	GI50 (T-47D breast)	GI50 (CAKI-1 renal) [µM]
Cc1ccc(S(=O)(=O)N(CC(O)COc2ccccc2)c2ccc(F)cc2F)cc1 (configuration not stated)	41.9	41.6	33.3	23.8	34.4	28.7	27.7	30.6	46.4 µM	29.9									
O=c1cc(NCc2ccncc2)[nH]c(=O)[nH]1	> 100	> 100	> 100	> 100	> 100	> 100	> 100	> 100	> 100 µM	> 100									
O=C(c1ccco1)N(C(=S)OC12CC3CC(CC(C3)C1)C2)c1ccccc1	> 100	> 100	> 100	> 100	77.4	84.6	87.3	83.6	> 100 µM	> 100									
COc1ccc(C(O)CC(O)(C(F)(F)F)C(F)(F)F)cc1 (configuration not stated)	> 100	> 100	59.7	> 100	69.8	64.1	77.5	> 100	> 100 µM	55.1									
C=C1C(=O)O[C@H]2[C@H]3O[C@@H](C[C@@H]12)[C@](C)(O)CC[C@@H]1O[C@@]1(C)CCC[C@H]3C	60	> 100	> 100	51.8	46.6	73.2	41.7	31.4	82.4 µM	27.6									
Cc1ccc(/C(O)=C/c2nc3ccc([N+](=O)[O-])cc3nc2/C=C(\O)c2ccc(C)cc2)cc1	> 100	97.6	> 100	> 100	> 100	> 100	> 100	> 100	> 100 µM	> 100									
CC(C)(C)OC(=O)n1cc(C2CN(O)C(=O)C23CCC(=O)N3Cc2ccccc2)c2ccccc21 (configuration not stated)	62	66.5	> 100	> 100	> 100	74.8	> 100		> 100 µM	> 100									
O=C1CC(n2cccc2)c2c(Br)sc(Br)c21 (configuration not stated)	42.2	35.2	69.6	33.4	33.2	56.5	27.9	31.8	46.3 µM	19.8									
CC(C)OC1OC(CO)C(O)CC1n1cc(F)c(=O)[nH]c1=O (configuration not stated)	> 100		> 100	> 100	> 100	> 100	> 100	> 100	> 100 µM	> 100									
S=C(NCc1ccccc1)N/N=C/c1ccccn1	17.7	> 29	8.52	> 100	> 100	> 100	> 100	> 56.1	> 100 µM	> 96.6									
O=[N+]([O-])c1cccnc1-n1cnc2ccccc21	> 100	> 100	> 100	> 100	> 100	> 100			> 100 µM	> 100									
O=[N+]([O-])c1ccc(C(Nc2ccccc2)c2ccc3cccnc3c2O)cc1 (configuration not stated)	> 27.7	> 100	> 69.3	47.7	33.6	> 100	> 100	> 100	44.4 µM	> 62.3									
c1ccc(-c2nnn(CCN3CCCCC3)n2)cc1	> 100	> 100	> 100	> 100	> 100	> 100	> 100	> 100	> 100 µM	> 100									
NCCOCC(N)C(=O)O (configuration not stated)	> 100	> 100	> 100	> 100	> 100	> 100	> 100	> 100	> 100 µM	> 100									
CS(=O)(=O)NC12CCC(c3ccccc31)c1ccccc12	> 100	> 100	> 100	> 100	> 100	> 100	> 100	> 100	> 100 µM	> 100									
Cc1ccccc1OC(C)C(=O)NN1C(=O)CC(=O)N(c2ccccc2)C1=S (configuration not stated)	> 100	> 100	> 100	> 100	> 100	> 100	> 100	> 100	> 100 µM	> 100									
CCOC(=O)c1cnccc1CC1(C#N)c2ccccc2C=CN1C(=O)c1ccccc1 (configuration not stated)	> 100	> 100	> 100	> 100	> 100	> 100	> 100	> 100	> 100 µM	> 100									
NC(=O)Cc1nc2c(=O)[nH]cnc2n1C1OC(CO)C(O)C1O (configuration not stated)	> 100	> 100	> 100	> 100	> 100	> 100	> 100	> 100	> 100 µM	> 100									
COC(=O)[C@@H]1CN(C(=O)c2ccccc2)C(=O)N1C(=O)OCc1ccccc1	> 100	> 100	> 100	> 100	> 100	> 100	> 100	> 100	> 100 µM	> 100									

SMILES	TGI (NCI-H226 lung) [µM]	TGI (SK-OV-3 ovarian) [µM]	TGI (NCI/ADR-RES ovarian) [µM]	TGI (OVCAR-4 ovarian) [µM]	TGI (OVCAR-3 ovarian) [µM]	TGI (A498 renal) [µM]	TGI (NCI-H23 lung) [µM]	TGI (ACHN renal) [µM]	TGI (T-47D breast)	TGI (CAKI-1 renal) [µM]	GI50 (NCI-H226 lung) [µM]	GI50 (NCI/ADR-RES ovarian) [µM]	GI50 (OVCAR-4 ovarian) [µM]	GI50 (OVCAR-3 ovarian) [µM]	GI50 (A498 renal) [µM]	GI50 (NCI-H23 lung) [µM]	GI50 (ACHN renal) [µM]	GI50 (T-47D breast)	GI50 (CAKI-1 renal) [µM]
CC(C)C1(O)C(=O)N(c2c(F)c(F)c(F)c(F)c2F)C(=S)N1CCSc1ccccc1 (configuration not stated)	38.7	31	31	29.1	30.1	29.8	32.9	31.3	33.6 µM	24.7									
CCC(CC(C)C)Nc1ccc(NC(CC)CC(C)C)cc1 (configuration not stated)	29.9		39.8	26.8	26	95.8	46.3	28.5	26.7 µM	> 100	15.3	17.6	13.9	13.3	23.8	18.2	15.3	12.7 µM	40.2
CC(=O)/C(=C\c1ccc(Cl)c(Cl)c1)C(=O)C(C)CN(C)C (configuration not stated)	14.9	37.1	72.5		16.1	8.16	30.6	17.9	12.3 µM	17.1									
Cc1cc2c(c(=O)n1C)SCC2	> 100	> 100	> 100	> 100	> 100	> 100	> 100	> 100	> 100 µM	> 100									
Cc1nc2ccc(Cl)cc2c2c1CCN2c1ccccc1	22		26	> 100	44.1	34.3	43.6	62.4	36.3 µM	28.1									
COc1ccc2nc3n(c2c1)CCc1cc(OC)c(OC)cc1-3	> 100	> 100	> 100	> 100	> 100	> 100	> 100	> 100	> 100 µM	> 100									
CCOC(=O)c1cn(C)c(=S)n2c1nc1ccccc12	> 100		> 100	> 100	> 100	> 100	> 100	> 100	> 100 µM	> 100									
CCOC(=O)C1CCCCN1CCc1c[nH]c2ccccc12 (configuration not stated)	> 100	> 100	> 100	> 100	> 100	> 100	> 100	> 100	97.1 µM	> 100									
CO[C@H]1C[C@H](O[C@H]2CC[C@]3(C=O)[C@H]4CC[C@]5(C)[C@@H](C6=CC(=O)OC6)CC[C@]5(O)[C@@H]4CC[C@]3(O)C2)O[C@H](C)[C@H]1O	1.28	0.815	2.3	0.341	0.556	1.34	0.787	1.92	5.31 µM	0.0947									
CC1CC/C(=C\c2ccc(Cl)cc2)c2nc(N)c(C#N)c(-c3ccc(Cl)cc3)c21 (configuration not stated)	> 100	> 100	> 100	> 100	> 100	72.4	> 100	> 100	> 100 µM	45.5									
Cn1c2ccccc2n2c3ncccc3c(=S)c(C#N)c12	> 100	> 100	> 100	> 100	> 100	> 100	> 100	> 100	> 100 µM	> 100									
C/C(=N\Nc1nc2ccccc2[nH]1)c1cc2ccccc2cn1	1.69	12.7	1.16	2.41	0.911	0.665	1.64	0.638	1.12 µM	1.32									
O=C(/C=C/c1cccs1)c1ccccc1Cl	> 65.7	> 77.9	44.9	26.8	28.2	24	25.8	29.4	22.8 µM	23									
N#Cc1nc(C#N)n(C(=O)c2ccccc2)c1NC(=O)c1ccccc1	> 100	> 100	> 100	> 100	> 100	> 100	> 100	> 100	> 100 µM	> 100									
CN(C)C(=S)Oc1ccc2ccc(=O)oc2c1	> 100	> 100	> 100	> 100	> 100	> 100	> 100	> 100	> 100 µM	> 100									
N/C(=N\Nc1ccc(S(N)(=O)=O)cc1)c1cnccn1	> 100	> 100	> 100	> 100	> 100	> 100	> 100	> 100	> 100 µM	> 100									
CCOP(=O)(OCC)C(C)(CC)NC(=O)C(C(F)(F)F)C(F)(F)F (configuration not stated)	> 100	> 100	> 100	> 100	> 100	> 100	> 100	> 100	> 100 µM and 99.7 µM	> 100								> 51.5 µM and 21.1 µM	
NCCC1CN(C(=O)OCc2ccccc2)c2ccccc21 (configuration not stated)	26.8	> 59.6	36.7	> 55.8	45.6	> 52.2	41.8	> 54.6	28 µM	> 50.7									
